In PubChem BioAssay (NCI):
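Briefly, cells in 96-well plates were exposed to five compound concentrations for 48 h, and endpoints were estimated by linear interpolation. GI50 is the concentration that inhibits growth by half. TGI denotes the concentration required for complete inhibition of growth.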

Tests used:
Assay in all cases: DTP human tumour cell line panel, 48 h; in the data active = GI50 below about 0.43 µM; inactive = the rest
[1] = system: UACC-257 melanoma
[2] = system: SK-MEL-28 melanoma
[3] = system: CCRF-CEM leukemia
[4] = system: SNB-19 CNS
[5] = system: HCC-2998 colon
[6] = system: MCF7 breast
[7] = system: NCI/ADR-RES ovarian
[8] = system: OVCAR-3 ovarian
[9] = system: RPMI-8226 leukemia
[10] = system: T-47D breast
[11] = system: UACC-62 melanoma
[12] = system: OVCAR-5 ovarian
[13] = system: DU-145 prostate
[14] = system: U251 CNS
[15] = system: HCT-116 colon
[16] = system: KM12 colon
[17] = system: HS 578T breast
[18] = system: CAKI-1 renal
[19] = system: NCI-H23 lung
[20] = system: HOP-62 NSCLC
[21] = system: SR leukemia
[22] = system: NCI-H460 lung
[23] = system: MDA-MB-231 breast
[24] = system: SNB-75 CNS
[25] = system: A498 renal
[26] = system: SN12C renal
[27] = system: LOX IMVI melanoma
[28] = system: A549 NSCLC
[29] = system: SK-MEL-5 melanoma
[30] = system: ACHN renal
[31] = system: HCT-15 colon
[32] = system: SK-MEL-2 melanoma
[33] = system: TK-10 renal
[34] = system: MDA-MB-435
[35] = system: BT-549 breast
[36] = system: IGROV1 ovarian
[37] = system: HT29 colon
[38] = system: EKVX NSCLC
[39] = system: COLO 205 colon
[40] = system: SF-268 CNS
[41] = system: K-562 leukemia
[42] = system: 786-0 renal
[43] = system: SF-295 CNS
[44] = system: MALME-3M melanoma
[45] = system: SF-539 CNS
[46] = system: MOLT-4 leukemia
[47] = system: HOP-92 NSCLC
[48] = system: NCI-H226 lung
[49] = system: RXF 393 renal
[50] = system: UO-31 renal
[51] = system: OVCAR-8 ovarian
[52] = system: SW-620 colon
[53] = system: OVCAR-4 ovarian
[54] = system: PC-3 prostate
[55] = system: SK-OV-3 ovarian
[56] = system: HL-60(TB) leukemia
[57] = system: M14 melanoma

Oc1ccccc1/C=N/Nc1nc(N/N=C/c2ccccc2O)nc(N2CCOCC2)n1
15.3 µM: TGI [42]
34.5 µM: TGI [51]
23.4 µM: TGI [52]
13.8 µM: TGI [55]
52.2 µM: TGI [28]
20.1 µM: TGI [19]
> 100 µM: TGI [1] | TGI [3] | TGI [5] | TGI [6] | TGI [8] | TGI [9] | TGI [10] | TGI [11] | TGI [12] | TGI [13] | TGI [15] | TGI [16] | TGI [21] | TGI [26] | TGI [29] | TGI [32] | TGI [33] | TGI [34] | TGI [35] | TGI [36] | TGI [37] | TGI [39] | TGI [40] | TGI [41] | TGI [43] | TGI [44] | TGI [45] | TGI [46] | TGI [54] | TGI [56] | TGI [57]
5.26 µM: TGI [24]
20.4 µM: TGI [48]
23 µM: TGI [20]
8.58 µM: TGI [25]
49.9 µM: TGI [2]
7.56 µM: TGI [53]
2.45 µM: TGI [49]
9.37 µM: TGI [7]
0.873 µM: TGI [27]
14.9 µM: TGI [4]
44.9 µM: TGI [30]
18.7 µM: TGI [50]
22.3 µM: TGI [14]
6.01 µM: TGI [47]
inactive: GI50 [1] 6.53 µM | GI50 [2] 3.2 µM | GI50 [3] 0.537 µM | GI50 [4] 3.14 µM | GI50 [5] 7.65 µM | GI50 [6] 2.39 µM | GI50 [7] 0.685 µM | GI50 [8] 3.42 µM | GI50 [9] 2.78 µM | GI50 [10] 3.34 µM | GI50 [11] 24.5 µM | GI50 [12] 6.41 µM | GI50 [13] 6.09 µM | GI50 [14] 3.06 µM | GI50 [15] 0.823 µM | GI50 [16] 33.2 µM | GI50 [17] 3.24 µM | GI50 [18] 4.52 µM | GI50 [19] 4.31 µM | GI50 [20] 3.51 µM | GI50 [22] 2.3 µM | GI50 [23] 2.42 µM | GI50 [24] 1.82 µM | GI50 [25] 1.09 µM | GI50 [26] 18.3 µM | GI50 [28] 2.88 µM | GI50 [29] 5.86 µM | GI50 [30] 1.58 µM | GI50 [32] 6.06 µM | GI50 [33] 44.9 µM | GI50 [34] 9.53 µM | GI50 [35] 5.19 µM | GI50 [36] 0.966 µM | GI50 [37] 5.89 µM | GI50 [38] 3.28 µM | GI50 [39] 5.53 µM | GI50 [40] 16.9 µM | GI50 [41] 0.683 µM | GI50 [42] 0.709 µM | GI50 [43] 7.67 µM | GI50 [44] 8.69 µM | GI50 [45] 7.29 µM | GI50 [46] 1.55 µM | GI50 [47] 1.65 µM | GI50 [48] 3.92 µM | GI50 [51] 3.75 µM | GI50 [52] 1.78 µM | GI50 [53] 2.48 µM | GI50 [54] 3.61 µM | GI50 [55] 3.7 µM | GI50 [57] 3.22 µM
active: GI50 [21] 0.322 µM | GI50 [27] 0.276 µM | GI50 [31] 0.241 µM | GI50 [49] 0.272 µM | GI50 [50] 0.372 µM | GI50 [56] 0.193 µM
44.1 µM: TGI [17]
16.2 µM: TGI [31]
30.9 µM: TGI [23]
46.5 µM: TGI [18]
17.4 µM: TGI [22]
32 µM: TGI [38]
